Where a name gives a salt, the structure may show the parent alone.
What was measured:
[1] = test system: Purkinje fiber of the right ventricular free wall; test: Influence on Myocardial Action Potential Duration Time (APD75); assay type: cell-based, hybrid adult dog; settings: Canis lupus familiaris, 20 min, 20 minutes' incubation, 1 Hz, 37° C.; for percent prolongation of action potential duration (APD75) at 1 µg/mL: Dose 1.0 (μg, ml); for percent prolongation of action potential duration (APD75) at 3 µg/mL: Dose 3.0 (μg, ml); for percent prolongation of action potential duration (APD75) at 10 µg/mL: Dose 10.0 (μg, ml)
Description: To a hybrid adult dog, 30 mg/kg of pentobarbital was administered through a vein, and after being anesthetized, the heart was removed. Afterward, the right ventricular free wall of the heart was cut and taken out in a Tyrode solution.
The taken right ventricular free wall was fixed in an incubator at 37° C., and a nutritional solution (20 ml of the Tyrode solution) was refluxed.
In this isolated condition, myocardial action potential duration times (APD75) were measured before and after the administration of the respective compounds prepared in the above examples in Table A and d-sotalol as a control medicine, and APD75 (%) was calculated from the measured results in accordance with the formula: […]
A: APD75 before administration
B: APD75 after administration
Here, APD75 was measured as follows: A field stimulation of 1 Hz was given to the right ventricular free wall, and any variation of an action potential was depicted on an oscilloscope via a glass microelectrode (10 to 20 M.OMEGA.) thrust into a Purkinje fiber of the free wall and via an amplifier. Afterward, a waveform on the oscilloscope was analyzed by the use of a computer, and the time of from a point of the action potential generation to a point of 75% repolarization was measured. This measured time was regarded as the myocardial action potential duration time (APD75).
The compounds and d-sotalol shown in Table A were separately added to the refluxing nutritional solution (20 ml), and after 20 minutes' incubation, APD75 after the administration was calculated from the variation of the myocardial action potential duration time.
Incidentally, this test was carried out in accordance with a Sato et al's method [H. Sato, K. Hashimoto, Arzneimeittel Forschung, 34 (1), 3a, 376-380 (1984)].

[2] = Toxicity Test 1 (oral, mortality 24 hours after administration); settings: mouse, in vivo, 300 mg/kg (P.O), 2 to 4 mice per group, read-out: Mortality Rate (%)
Description: Each of the compounds prepared in the above-mentioned examples shown in Table B was administered into a mouse (ddy strain, male). In each case, the administration was effected by oral administration in a dose of 300 mg/kg.
A mortality rate (number of specimens: one group=2 to 4 mice) of the mice 24 hours after the administration was calculated, and the results are set forth in Table B.

[3] = test system: ventricular muscle (right ventricle); test: Influence on Ventricular Muscle Refractory Period (ERP); assay type: in vivo, mongrel adult dog; settings: Canis lupus familiaris, iv, anesthetized dog, read-out: ERP (%; extensibility of refractory period); for change in vivo at 0.1 mg/kg: Dose 0.1 mg/kg i.v.; for change in vivo at 0.3 mg/kg: Dose 0.3 mg/kg i.v.; for change in vivo at 1 mg/kg: Dose 1.0 mg/kg i.v.; for change in vivo at 3 mg/kg: Dose 3.0 mg/kg i.v.
Description: Refractory periods were measured in the following manner before and after each of the compounds and d-sotalol shown an Table A was separately administered to a vein or a duodenum, and ERP (%; extensibility of refractory period) was calculated from the measured values in accordance with the following formula: […]
W: Refractory period after administration
Y: Refractory period before administration
To a mongrel adult dog, 30 mg/kg of pentobarbital was administered intravenously, and after being anesthetized, a pair of silver-silver chloride electrodes separated by 3 mm was sewn on an opened right ventricule, and electrical stimulation was given at an interval of 400 msec at a duration time of 4 msec under a current twice as much as the threshold. Afterward, a small amount of alcohol was injected into a sinus artery in order to extinguish a pacemaker activity, and the ventricular refractory period (ERP) was measured under ventricule pacing.
That is, 1 train comprised 10 stimulations, and an interval between two of the trains was usually 400 msec. At the time of the refractory period measurement, however, the above interval was shortened every 10 smec, and the interval between the trains at the time when reaction to the first stimulation of the train disappeared was regarded as the refractory period.
In this case, the electrical stimulation was fed in accordance with a program by a heart stimulation device (Diamedical Co., Ltd.; DHM-226-3).

Row | SMILES | percent prolongation of action potential duration (APD75) at 1 µg/mL [1] | percent prolongation of action potential duration (APD75) at 3 µg/mL [1] | percent prolongation of action potential duration (APD75) at 10 µg/mL [1] | mortality at 24 h [2] | change in vivo at 0.1 mg/kg [3] | change in vivo at 0.3 mg/kg [3] | change in vivo at 1 mg/kg [3] | change in vivo at 3 mg/kg [3] | percent prolongation of action potential duration (APD75) at 0.3 µg/mL ([1]; Dose 0.3 (μg, ml))
1 | Cn1c(N2CCN(CCCOc3ccc(-n4cncn4)cc3)CC2)cc(=O)n(C)c1=O [Compound 6] | 5% | 10% | 25% | 0% | 0% | 0% | 0% | 6.2% | –
2 | COC(=O)c1ccccc1OCCCN1CCN(c2cc(=O)n(C)c(=O)n2C)CC1 [Compound 21] | 11% | 23% | 26% | 0% | 7.1% | 7.1% | 7.1% | 14.3% | –
3 | CC(=O)c1cc(Cl)ccc1OCCCN1CCN(c2cc(=O)n(C)c(=O)n2C)CC1 [Compound 45] | 42% | 71% | 75% | 50% | 0% | 2.4% | 9.5% | 18.6% | –
4 | Cn1c(N2CCN(CCCOc3ccc(Cl)cc3)CC2)cc(=O)n(C)c1=O [Compound 64, 6-[4-(3-[4-chlorophenoxy]propyl)piperazin-1-yl]-1,3-dimethyl-2,4(1H,3H)-pyrimidinedione.hydrochloride] | 14% | 25% | – | 0% | 2% | 6.3% | 13% | 24.3% | 7%
5 | Cn1c(N2CCN(CCCOc3ccccc3N)CC2)cc(=O)n(C)c1=O [Compound 69] | – | 24% | 34% | 0% | 0% | 6.3% | 12.5% | – | –
6 | Cn1c(N2CCN(CCCCOc3ccc(Cl)cc3)CC2)cc(=O)n(C)c1=O [Compound 82, 6-[4-(4-[4-chlorophenoxy]butyl)piperazin-1-yl]-1,3-dimethyl-2,4(1H,3H)-pyrimidinedione.hydrochloride] | 16% | 28% | 43% | 0% | – | – | – | – | –
